According to patent publication US20160270687A1, “System and Method for Quantitative Magnetic Resonance (MR) Analysis Using T1 Mapping” (priority 2013, published 2016):
Peptide text beside a SMILES is read from it. * marks the point of attachment. X1 = O=C(O)CN1CCN(CC(=O)O)CCN(CC(=O)NCCCn2cc(COCC(COCc3cn(CCCNC(=O)CN4CCN(CC(=O)O)CCN(CC(=O)O)CCN(CC(=O)O)CC4)nn3)(COCc3cn(CCCNC(=O)CN4CCN(CC(=O)O)CCN(CC(=O)O)CCN(CC(=O)O)CC4)nn3)NC(=O)CCN3C(=O)CC(*)C3=O)nn2)CCN(CC(=O)O)CC1

How the values were obtained:
[1] = tested on: orthotopic Gli36Δ5 glioma tumors; assay: Quantitative T1 mapping of orthotopic brain tumors with Optimark; settings: for time of peak contrast following the injection: 0.1 mmol/kg
From the text: This is because T1 mapping is a quantitative MR imaging method that yields the absolute T1 relaxation values as opposed to the relative signal intensity values in T1-weighted images.
High-resolution T2-weighted MR images were acquired to localize the tumor and enable identification of the largest cross-section of tumor on MRI.
Graph 2300 illustrates mean Gd concentrations in the tumor before and after intravenous administration of 0.1 (line 2310) or 0.2 mmol/kg (line 2320) Optimark™ in cohorts of nu/nu athymic mice bearing orthotopic glioma tumors. Data is plotted as means+/−standard error. The mean tumor Gd concentration was measured at baseline or pre-agent and after contrast agent injection was measured every 2.5 minutes for 30 minutes.

[2] = tested on: LN-229 flank tumors; assay: Dynamic quantitative T1 mapping and Gd concentration maps of flank tumors
Procedure: Representative bright-field images of GFP-positive LN-229 flank tumors for animals where 0.2 mmol Gd/kg of Optimark™, scrambled-Tris-(Gd-DOTA)3, or SBK2-Tris-(Gd-DOTA)3 was administered are presented in row 1210 in columns 1202, 1204, and 1206 respectively. GFP fluorescence images of LN-229 tumor cells for each of the three contrast agents are presented in row 1220 in columns 1202, 1204, and 1206 respectively. T2 high resolution images are presented in row 1230 in columns 1202, 1204, and 1206 respectively. T2 low-resolution images with a region of interest (ROI) illustrated by a dashed line are presented in row 1240 in columns 1202, 1204, and 1206 respectively show the tumor area used for T1 map quantification. Axial T1-weighted images of LN-229 flank tumor at baseline or pre-agent (e.g., before injection of contrast agents) are shown in row 1250. Axial T1-weighted images of LN-229 flank tumor at time of maximum contrast (e.g., 15 minutes) following intravenous injection are shown in row 1260.
High-resolution T2-weighted images were obtained for each mouse using a RARE (Rapid Acquisition with Relaxation Enhancement) acquisition (TR/TE=5000/40 ms, 20 slices, resolution=0.117×0.117×0.5 mm) to select the imaging slice for the dynamic T1 mapping acquisition. The dynamic T1 data were then acquired using a snapshot GRE (Gradient Recalled Echo) acquisition with inversion recovery preparation (10 inversion times [263, 775, 1287, 1799, 2311, 2823, 3335, 3847, 4359, and 4871 ms], GRE imaging readout TR/TE=4.0 ms/1.3 ms, flip angle=10 degrees, resolution=0.234×0.234×1 mm, Field of View (FOV)=30×30 mm, and 10 signal averages). The total acquisition time for each T1 mapping scan was 2.5 min. After five baseline/pre-agent T1 mapping scans, Optimark™, the targeted SBK2-Tris-(Gd-DOTA)3 agent, or the non-targeted scrambled-Tris-(Gd-DOTA)3 control was injected at a dose of 0.2 mmol of Gd/kg followed by a 50 μL flush of saline. T1 maps were then consecutively acquired every 2.5 min over 62.5 min.
The MRI data were imported into MATLAB enabling estimation of both pixel-wise T1 relaxation time maps as well as mean intra-tumoral T1 changes using an ROI analysis. The T1 maps were obtained from the T1 mapping acquisition mono-exponential models. To compare the multiple imaging agents, the pre and post-agent T1 maps were then used to calculate maps of percent change in T1, which is directly related to the concentration of each agent within the tumor. To calculate Gd concentrations, T1 relaxivity constants determined at 9.4 T were used along with T1 map values.
As the T1 maps and T2-weighted images were co-registered, the ROI analysis was performed by outlining the ROI on the T2-weighted images. The same ROI was then applied to all of the T1 maps and the average value in the ROI was calculated as a measure of tumor uptake of each imaging agent. Plots of normalized T1 values in the tumor were calculated by dividing the post-agent injection T1 maps by an average of the 5 baseline (pre-agent injection) tumor T1 values. This normalization was performed to limit the effects of variation in the pre-contrast tumor T1 values on the comparison of the molecular imaging agents.
As an imaging marker for contrast agent retention, a slope analysis was performed on the normalized T1 values. Slopes were calculated for Optimark™, scrambled-Tris-(Gd-DOTA)3, and SBK2-Tris-(Gd-DOTA)3 by using all of the mean tumor T1 values from 15 minutes to 60 minutes following agent administration. For each pair of contrast agents, normalized T1 map values at each time point, along with the slopes of post-agent T1 curves were evaluated for statistical significance using a two-tailed Student's t-test, assuming statistical significance at p<0.05.

[3] = tested on: LN-229 flank tumor; assay type: in vivo, mice
Procedure: FIG. 8 illustrates that the SBK2 based specific molecular imaging agent improves the enhancement of LN-229 tumors. FIG. 8 illustrates representative T1-weighted axial 2D gradient images of LN-229 flank tumor-bearing mice before (pre-injection) (column 840) and at 1 minute (column 842), 5 minutes (column 844), 10 minutes (column 846), 20 minutes (column 848), and 30 minutes (column 850) after the intravenous injection of ProHance™ (row 810), scrambled Tris-(Gd-DOTA)3 (row 820), or SBK2-Tris-(Gd-DOTA)3 (row 830) at 0.1 mmol Gd/kg. FIG. 8 also illustrates axial 2D gradient images heat map overlays on the tumor to indicate contrast intensity. FIG. 8 illustrates heat maps with overlays for T1-weighted axial 2D gradient images of LN-229 flank tumor-bearing mice before (pre-injection) (column 882) and at 1 minute (column 884), 5 minutes (column 886), 10 minutes (column 888), 20 minutes (column 890), and 30 minutes (column 892) after the intravenous injection of ProHance™ (row 860), scrambled Tris-(Gd-DOTA)3 (row 870), or SBK2-Tris-(Gd-DOTA)3 (row 880) at 0.1 mmol Gd/kg.
The SBK2 based specific molecular imaging agent was developed as a diagnostic imaging tool. To function as an imaging tool, SBK2 was conjugated to a Gd chelate [SBK2-Tris-(Gd-DOTA)3] to generate an MR-detectable molecular imaging agent. The ability of SBK2-Tris-(Gd-DOTA)3 to function as a contrast agent was compared to a macrocyclic gadolinium chelate (Gadoteridol, ProHance™) and to a scrambled molecular imaging agent linked to gadolinium [scrambled Tris-(Gd-DOTA)3]. SBK2-Tris-(Gd-DOTA)3 labeled human glioma tumors with a high level of contrast persisting for two hours. […] SBK2-Tris-(Gd-DOTA)3 labeling of PTPμ extracellular fragment retained in the tumor microenvironment is a more specific MR molecular imaging agent than a nonspecific gadolinium chelate.
FIG. 9 illustrates quantitation of LN-229 flank tumor enhancement following administration of control or targeted contrast agents in xenograft mice. Graphs 900 and 910 illustrate dose-response plots of LN-229 flank tumor contrast to noise ratio (CNR) with ProHance™ or SBK2-Tris-(Gd-DOTA)3 respectively administered at 0.03 mmol Gd/kg or 0.1 mmol Gd/kg.
Data is shown as means±SEM. […] At 60 to 120 minutes post-injection, the ProHance™ cleared more rapidly than SBK2-Tris-(Gd-DOTA)3 resulting in greater than 110% increase in SBK2-Tris-(Gd-DOTA)3 tumor CNR compared with ProHance™ (P<0.001). The SBK2-Tris-(Gd-DOTA)3 tumor CNR was approximately 53% greater than the scrambled Tris-(Gd-DOTA)3 tumor CNR at 60 to 90 minutes (P<0.001).

`COCCNC(=O)CN(CCN(CCN(CC(=O)[O-])CC(=O)NCCOC)CC(=O)[O-])CC(=O)[O-].[Gd+3]` [Optimark™, gadoversetamide] was tested, and the “time of peak enhancement in the tumors (mean normalized T1)” value ([1]; 0.1 mmol/kg dose) was 5 min, the “change in normalized T1 values” ([1]; 0.1 mmol/kg dose, 5 minutes) was “modest decrease” and the “distinction between T1 value of normal brain and tumor” value ([1]; 0.1 mmol/kg dose, 30 minutes) was “no distinction”. The “time of peak contrast following the injection” value ([1]; T1-weighted FLASH images) was “five”, the “time of peak contrast following the injection” value ([1]; snapshot GRE images, T1 maps, Gd concentration maps) was “two and a half” and the “time of peak enhancement in the tumors (mean normalized T1)” value ([1]; 0.2 mmol/kg dose) was 5 min. For the same compound, the “change in normalized T1 values compared to 0.1 mmol/kg” value ([1]; 0.2 mmol/kg dose, 5 minutes) was “larger decrease”, the “distinction between normalized T1 values of normal brain and tumor” value ([1]; 0.2 mmol/kg dose, 30 minutes) was “weak distinction” and the “time after peak within which contrast agent concentration begins to diminish” value (“time … to diminish” below) ([2]; mouse, in vivo) was “thirty”.
In the case of `CC(O)CN1CCN(CC(=O)[O-])CCN(CC(=O)[O-])CCN(CC(=O)[O-])CC1.[Gd+3]` (centres unmarked) [Prohance™, gadoteridol, reference compound], the “time … to diminish” value ([2]; mouse, in vivo) is reported as “thirty”.
With `CC(C)C[C@H](NC(=O)[C@@H](NC(=O)[C@H](CC(N)=O)NC(=O)[C@@H](NC(=O)[C@H](CCC(N)=O)NC(=O)[C@H](CCC(=O)O)NC(=O)[C@H](Cc1c[nH]c2ccccc12)NC(=O)[C@H](CC(N)=O)NC(=O)[C@H](Cc1ccccc1)NC(=O)[C@H](CC(=O)O)NC(=O)[C@H](CC(=O)O)NC(=O)CNC(=O)[C@H](CCC(=O)O)NC(=O)CNC(=O)[C@@H](N)CSC1CC(=O)N(CCC(=O)NC(COCc2cn(CCCNC(=O)CN3CCN(CC(=O)O)CCN(CC(=O)O)CCN(CC(=O)O)CC3)nn2)(COCc2cn(CCCNC(=O)CN3CCN(CC(=O)O)CCN(CC(=O)O)CCN(CC(=O)O)CC3)nn2)COCc2cn(CCCNC(=O)CN3CCN(CC(=O)O)CCN(CC(=O)O)CCN(CC(=O)O)CC3)nn2)C1=O)C(C)C)[C@@H](C)O)C(=O)N[C@H](C(=O)N[C@@H](CCCCN)C(=O)N1CCC[C@H]1C(=O)N[C@H](C(=O)N[C@@H](CO)C(=O)N[C@@H](CC(=O)O)C(=O)O)[C@@H](C)O)[C@@H](C)O` (some centres unmarked) [SBK2-Tris-(Gd-DOTA)3] (H-C(X1)GEGDDFNWEQVNTLTKPTSD-OH; N-terminus and C-terminus assumed) the “increase in tumor CNR over scrambled Tris-(Gd-DOTA)3 or ProHance” value ([3]; 15 to 45 minutes post-injection, 0.1 mmol Gd/kg intravenous, P<0.001) was about 55%, the “tumor CNR greater than the scrambled Tris-(Gd-DOTA)3 tumor CNR” value ([3]; 60 to 90 minutes, 0.1 mmol Gd/kg intravenous, P<0.001) was “approximately 53%” and the “increase in tumor CNR compared with ProHance” value ([3]; 60 to 120 minutes post-injection, 0.1 mmol Gd/kg intravenous, P<0.001) was “greater than 110%”. For the same compound, the “contrast enhancement compared with ProHance alone” value ([3]; mouse, in vivo) was “significantly higher”, the “Gd concentration in tumor at 60 minutes” value ([2]; 0.2 mmol Gd/kg) was “remains at near peak levels” and the “retention judged from slope of mean tumor normalized T1 values” ([2]; 0.2 mmol Gd/kg, measured every 2.5 minutes for 62.5 minutes) was “highest retention”. The “distribution of T1 changes in the tumor” value ([2]; 30 minutes and 60 minutes, larger tumors) was “uniformly distributed throughout the tumor”, the “time the agent remains in the tumor” value ([2]; compared with non-specific molecular imaging agents) was 1 h and the “non-specific uptake compared with scrambled-Tris-(Gd-DOTA)3” value ([2]; mouse, in vivo) was “nearly identical non-specific uptake”. For the same compound, the “concentration accumulated in tumor relative to scrambled-Tris-(Gd-DOTA)3” value ([2]; tumors containing the PTPμ fragment) was “about twice”.
C-GEGDDFNWEQVNTLTKPTSD [SBK2] was tested, and the “retention time of the agent in the sample / glioblastoma” value ([3]; mouse, in vivo) was “up to two” and the “time contrast agent concentration remains at peak levels” value ([2]; mouse, in vivo) was “at least sixty”.
With “C-GFTQPETGTDNDLWSVDNEK [scrambled, reference compound]” the “time … to diminish” value ([2]; mouse, in vivo) was “thirty”.
